Measurements reported in PubChem BioAssay AID248 (DTP/NCI, 2004).
Where “and” joins values, the source holds several entries; their conditions need not be identical. Equal entries are not always repeated. Inconclusive results and toxic doses are left out. No stated cut-off is given here; in the data, active means T/C of 150% or more; inactive means T/C below 125%. Numbered stars: 1 amine (or outer) side, 2 acyl side, 3 side chain; on linkers, the order of the positions; unused ones are H or OH. Bridge positions count the residues as written; N and C are the ends. Square brackets hold non-standard residues; d marks the D form. Peptide text beside a SMILES is read from it. I, II: the chains in the order shown. Actinocin(1to9) = Cc1c2oc3c(C)ccc(C(=O)[*:2])c3nc-2c(C(=O)[*:1])c(N)c1=O; X5 = O=C1CC(C(=O)[*:2])N([*:1])C1; NMeV = CN[CH](C(=O)O)C(C)C; Sar = CNCC(=O)O

System: L1210 leukemia ip in BDF1 mice, survival T/C
Assay: NCI In Vivo Anticancer Drug Screen. Data for tumor model L1210 Leukemia (intraperitoneal) in B6D2F1 (BDF1) mice
Details: higher = longer survival
How it was run: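 Ratio derived from survival: compound-dosed mice over vehicle-dosed mice, all bearing a transplantable tumor.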

[1] = endpoint: mean survival time, dose: 50.0 mg/kg/injection, schedule: Q01DX001 (ip), vehicle: saline
[2] = endpoint: mean survival time, dose: 100.0 mg/kg/injection, schedule: Q01DX001 (ip), vehicle: saline
[3] = endpoint: mean survival time, dose: 200.0 mg/kg/injection, schedule: Q01DX001 (ip), vehicle: saline
[4] = endpoint: mean survival time, dose: 400.0 mg/kg/injection, schedule: Q01DX001 (ip), vehicle: saline
[5] = endpoint: mean survival time, dose: 100.0 mg/kg/injection, schedule: Q01DX009 (ip), vehicle: Klucel (hydroxypropylcellulose) (HPC)
[6] = endpoint: mean survival time, dose: 200.0 mg/kg/injection, schedule: Q01DX009 (ip), vehicle: Klucel (hydroxypropylcellulose) (HPC)
[7] = endpoint: mean survival time, dose: 100.0 mg/kg/injection, schedule: Q04DX003 (ip), vehicle: saline with Tween-80
[8] = endpoint: mean survival time, dose: 200.0 mg/kg/injection, schedule: Q04DX003 (ip), vehicle: saline with Tween-80
[9] = endpoint: mean survival time, dose: 400.0 mg/kg/injection, schedule: Q04DX003 (ip), vehicle: saline with Tween-80
[10] = endpoint: mean survival time, dose: 100.0 mg/kg/injection, schedule: Q01DX001 (ip), vehicle: carboxymethylcellulose (CMC)
[11] = endpoint: mean survival time, dose: 200.0 mg/kg/injection, schedule: Q01DX001 (ip), vehicle: carboxymethylcellulose (CMC)
[12] = endpoint: mean survival time, dose: 400.0 mg/kg/injection, schedule: Q01DX001 (ip), vehicle: carboxymethylcellulose (CMC)
[13] = endpoint: mean survival time, dose: 100.0 mg/kg/injection, schedule: Q04DX002 (ip), vehicle: Klucel (hydroxypropylcellulose) (HPC)
[14] = endpoint: mean survival time, dose: 200.0 mg/kg/injection, schedule: Q04DX002 (ip), vehicle: Klucel (hydroxypropylcellulose) (HPC)
[15] = endpoint: mean survival time, dose: 400.0 mg/kg/injection, schedule: Q04DX002 (ip), vehicle: Klucel (hydroxypropylcellulose) (HPC)

Measured: T/C

Cc1c2oc3c(C)ccc(C(=O)NC4C(=O)NC(C(C)C)C(=O)N5CCCC5C(=O)N(C)CC(=O)N(C)C(C(C)C)C(=O)OC4C)c3nc-2c(C(=O)NC2C(=O)NC(C(C)C)C(=O)N3CC(=O)CC3C(=O)N(C)CC(=O)N(C)C(C(C)C)C(=O)OC2C)c(N)c1=O (stereo unspecified) (I: TV[X5][Sar][NMeV] / II: TVP[Sar][NMeV]; ester I:1-I:C, II:1-II:C; linker I:N-II:N via Actinocin(1to9); configuration not given here)
inactive: endpoint: median survival time, dose: 3.1 micrograms/kg/injection, schedule: Q01DX009 (ip), vehicle: water 108 % of control | endpoint: median survival time, dose: 6.2 micrograms/kg/injection, schedule: Q01DX009 (ip), vehicle: water 120 % of control | endpoint: median survival time, dose: 12.5 micrograms/kg/injection, schedule: Q01DX009 (ip), vehicle: water 116 % of control | endpoint: median survival time, dose: 18.7 micrograms/kg/injection, schedule: Q04DX003 (ip), vehicle: water 108 % of control | endpoint: median survival time, dose: 25.0 micrograms/kg/injection, schedule: Q01DX009 (ip), vehicle: water 108 % of control | endpoint: median survival time, dose: 37.5 micrograms/kg/injection, schedule: Q04DX003 (ip), vehicle: water 113 % of control

CCOC(=O)C(C(C)=O)C(C)=O
inactive: [1] 101 % of control | [2] 107 % of control | [3] 97 % of control | [4] 97 % of control

COc1ccc(/C=N/n2c3ccccc3c3ccccc32)cc1OCCN(C)C
inactive: endpoint: mean survival time, dose: 3.12 mg/kg/injection, schedule: Q01DX009 (ip), vehicle: Klucel (hydroxypropylcellulose) (HPC) 96 % of control | endpoint: mean survival time, dose: 6.25 mg/kg/injection, schedule: Q01DX009 (ip), vehicle: Klucel (hydroxypropylcellulose) (HPC) 101 % of control | endpoint: mean survival time, dose: 12.5 mg/kg/injection, schedule: Q01DX009 (ip), vehicle: Klucel (hydroxypropylcellulose) (HPC) 97 % of control | endpoint: mean survival time, dose: 25.0 mg/kg/injection, schedule: Q01DX009 (ip), vehicle: Klucel (hydroxypropylcellulose) (HPC) 102 % of control | endpoint: mean survival time, dose: 25.0 mg/kg/injection, schedule: Q04DX003 (ip), vehicle: Klucel (hydroxypropylcellulose) (HPC) 98 % of control | endpoint: mean survival time, dose: 50.0 mg/kg/injection, schedule: Q04DX003 (ip), vehicle: Klucel (hydroxypropylcellulose) (HPC) 96 % of control

CN(C)C(=O)Nc1nc2cc(Cl)c(Cl)cc2[nH]1
inactive: endpoint: mean survival time, dose: 100.0 mg/kg/injection, schedule: Q01DX001 (ip), vehicle: Klucel (hydroxypropylcellulose) (HPC) 98 % of control | endpoint: mean survival time, dose: 200.0 mg/kg/injection, schedule: Q01DX001 (ip), vehicle: Klucel (hydroxypropylcellulose) (HPC) 100 % of control | endpoint: mean survival time, dose: 400.0 mg/kg/injection, schedule: Q01DX001 (ip), vehicle: Klucel (hydroxypropylcellulose) (HPC) 94 % of control

CCNc1c([N+](=O)[O-])cc(S(=O)(=O)O)cc1[N+](=O)[O-]
inactive: endpoint: mean survival time, dose: 100.0 mg/kg/injection, schedule: Q04DX003 (ip), vehicle: saline 116 % of control | endpoint: mean survival time, dose: 200.0 mg/kg/injection, schedule: Q04DX003 (ip), vehicle: saline 105 % of control | endpoint: mean survival time, dose: 400.0 mg/kg/injection, schedule: Q04DX003 (ip), vehicle: saline 95 % of control

CN(Cc1ccccc1)/C(N)=N/N
inactive: endpoint: mean survival time, dose: 37.5 mg/kg/injection, schedule: Q04DX003 (ip), vehicle: saline 94 % of control | endpoint: mean survival time, dose: 75.0 mg/kg/injection, schedule: Q04DX003 (ip), vehicle: saline 111 % of control | endpoint: mean survival time, dose: 150.0 mg/kg/injection, schedule: Q04DX003 (ip), vehicle: saline 97 % of control

Cc1cc2c(cc1C)/C(=N/O)CCC2
inactive: [5] 100 % of control | [6] 101 % of control | endpoint: mean survival time, dose: 400.0 mg/kg/injection, schedule: Q01DX009 (ip), vehicle: Klucel (hydroxypropylcellulose) (HPC) 101 % of control

CC(=O)CC(=O)Nc1ccc(N=Nc2ccccc2)cc1
inactive: [7] 93 % of control | [8] 91 % of control | [9] 91 % of control

CCOC(=O)c1cc(Cl)c(O)c(Cl)c1
inactive: endpoint: mean survival time, dose: 25.0 mg/kg/injection, schedule: Q01DX009 (ip), vehicle: gum acacia 100 % of control | endpoint: mean survival time, dose: 50.0 mg/kg/injection, schedule: Q01DX009 (ip), vehicle: gum acacia 98 % of control | endpoint: mean survival time, dose: 100.0 mg/kg/injection, schedule: Q01DX009 (ip), vehicle: gum acacia 98 % of control and 100 % of control | endpoint: mean survival time, dose: 100.0 mg/kg/injection, schedule: Q04DX003 (ip), vehicle: Klucel (hydroxypropylcellulose) (HPC) 93 % of control | endpoint: mean survival time, dose: 200.0 mg/kg/injection, schedule: Q04DX003 (ip), vehicle: Klucel (hydroxypropylcellulose) (HPC) 103 % of control | endpoint: mean survival time, dose: 400.0 mg/kg/injection, schedule: Q04DX003 (ip), vehicle: Klucel (hydroxypropylcellulose) (HPC) 95 % of control

CC(=O)NC1CCCC2CCCCC21 (stereo unspecified)
inactive: endpoint: mean survival time, dose: 100.0 mg/kg/injection, schedule: Q01DX009 (ip), vehicle: saline with Tween-80 94 % of control and 99 % of control | [7] 93 % of control | endpoint: mean survival time, dose: 200.0 mg/kg/injection, schedule: Q01DX009 (ip), vehicle: saline with Tween-80 109 % of control and 100 % of control | [8] 94 % of control | endpoint: mean survival time, dose: 400.0 mg/kg/injection, schedule: Q01DX009 (ip), vehicle: saline with Tween-80 103 % of control | [9] 94 % of control

CN(C)[C@@H]1C(=O)C(C(=O)NCNC2(C(=O)O)CCCC2)=C(O)[C@@]2(O)C(=O)C3=C(O)c4c(O)cccc4[C@@](C)(O)[C@H]3C[C@@H]12
inactive: endpoint: mean survival time, dose: 62.0 mg/kg/injection, schedule: Q01DX Z (ip), vehicle: saline 95 % of control | endpoint: mean survival time, dose: 125.0 mg/kg/injection, schedule: Q01DX Z (ip), vehicle: saline 98 % of control | endpoint: mean survival time, dose: 250.0 mg/kg/injection, schedule: Q01DX Z (ip), vehicle: saline 114 % of control

CC1(C)OC(C)(C)C1(O)C(=O)O
inactive: [2] 97 % of control | [3] 101 % of control | [4] 105 % of control

CCOC(=O)Nc1cc(NCC(O)CN(C)c2ccccc2)c(N)c(NC(=O)OCC)n1 (stereo unspecified)
inactive: [10] 87 % of control | [11] 87 % of control | [12] 92 % of control

O=[N+]([O-])c1ccc(/C=N/O)o1
inactive: endpoint: mean survival time, dose: 10.0 mg/kg/injection, schedule: Q04DX002 (ip), vehicle: Klucel (hydroxypropylcellulose) (HPC) 102 % of control | endpoint: mean survival time, dose: 20.0 mg/kg/injection, schedule: Q04DX002 (ip), vehicle: Klucel (hydroxypropylcellulose) (HPC) 117 % of control | endpoint: mean survival time, dose: 40.0 mg/kg/injection, schedule: Q04DX002 (ip), vehicle: Klucel (hydroxypropylcellulose) (HPC) 104 % of control | [1] 111 % of control

O=C1CCS(=O)O1 (stereo unspecified)
inactive: [13] 100 % of control | [14] 95 % of control | [15] 89 % of control

O=C(O)c1ccc(NC(=S)S)cc1
inactive: [13] 103 % of control | [14] 98 % of control | [15] 98 % of control

CCOCc1cc(Cc2cc(COCC)c3cccnc3c2O)c(O)c2ncccc12
inactive: endpoint: mean survival time, dose: 75.0 mg/kg/injection, schedule: Q01DX001 (ip), vehicle: carboxymethylcellulose (CMC) 97 % of control | endpoint: mean survival time, dose: 150.0 mg/kg/injection, schedule: Q01DX001 (ip), vehicle: carboxymethylcellulose (CMC) 105 % of control | endpoint: mean survival time, dose: 300.0 mg/kg/injection, schedule: Q01DX001 (ip), vehicle: carboxymethylcellulose (CMC) 103 % of control

CC(C)N1C(=O)NC(=O)C12CCN(Cc1ccccc1)CC2
inactive: [10] 101 % of control | [11] 98 % of control | [12] 95 % of control

O=c1cc(O)c2ccccc2o1
inactive: endpoint: mean survival time, dose: 50.0 mg/kg/injection, schedule: Q01DX009 (ip), vehicle: Klucel (hydroxypropylcellulose) (HPC) 104 % of control | [5] 93 % of control | [6] 90 % of control
